Laboratory results taken from patent US9592211B2, “Compositions for improvement of brain function” (GRESPO AB, priority 2012, dated 2017).
“Also recorded” adds a separate entry of the source.

What was measured:
[1] = test system: nestin-positive neurons in hippocampal CA1 area; assay: Induction of hippocampal neurogenesis (nestin immunohistochemistry), Example 1; assay type: in vivo, Mongolian gerbils; settings: old gerbils, 6 month feeding in chow, compared to age matched controls (FIG. 1)
Procedure: After the course of treatment as specified under Materials and Methods, the animals were sacrificed and the brains were analysed histologically to quantitate hippocampal neurogenesis.
Nestin is a marker for immature neurons. Nestin positive cells were found in the hippocampal layer of the pyramidal neurons. […] In some cells long processes that seem to be dendrites extended into deeper layers of the hippocampus, and these processes were nestin positive as well. In all of the CA fields of the hippocampus (CA1-CA3) these cells were structurally similar to pyramidal cells. The structural similarities between nestin positive cells and neurons allow regarding this type of cells as newly generated neurons.
In Example 1. the animals were fed Labofeed B standard chow (from Labofeed company; Andrzej Morawski Feed Production Plant, Kcynia near. Bydgoszcz, Poland) supplemented with test compounds as specified in table 1.
The lipase, protease and amylase were obtained as capsules containing 30,000 USP units/capsule of lipase, 20,000 USP units/capsule of protease, and 3,000 USP units/capsule of amylase) prepared as shown in Table 2. […]
Samplings for immunohistochemistry (one hemisphere of each animal) were postfixed overnight in the same fixative at +4° C. […] Then slices were washed out, placed on histological slides and mounted with Fluorescence Mounting Media (Dako, Denmark). […]

[2] = test system: Mongolian gerbils; assay: T-maze spontaneous alternation, cognitive function/memory, Example 2; assay type: in vivo; settings: old gerbils, feeding in chow, tested once (FIG. 2)
From the text: During the course of the treatment, the animals were subjected to T-maze test measuring cognitive function and/or memory as specified under Materials and Methods.
For long-lasting feeding (during 6 month) 75 old male Mongolian gerbils, randomly selected, were used. Those selected were approximately 1.5 years of age at start of the experiment with the mean body weight of 88.0±6 g and 2 years of age at experiment finish.
Subjects were first placed in the start arm of the T Maze. Upon leaving the start arm, subjects chose between entering either the left or the right goal arm. […] The percentage of alternation (number of turns in each goal arm) and total trial duration were recorded.

[3] = test system: synaptic terminals in hippocampal CA1 zone; assay: Synaptic morphology alterations (electron microscopy), Example 4; assay type: in vivo, Mongolian gerbils
From the text: In the middle portion of the CA1 stratum radiatum analyzed in the study, the great majority of synaptic inputs are excitatory and they preferentially terminate on the […], Taking into consideration these aspects, we could focus our analyses on the pool of excitatory CA1 spine synapses.
After perfusion the brains were isolated and separated on two hemispheres.
The hippocampus from another hemisphere of each animal was isolated and cut in 400-μm-thick transverse slices by a chopper (McIlwain tissue chopper, Great Britain). […] Tissue slices were then dehydrated in an ascending series of ethanol followed by dry acetone and embedded in EPON resin according to official protocol. The sections were produced by ultramicrotome LKB-8800. Toluidine blue-stained semi-thin (1 μm) sections of hippocampus were used to localize hippocampal CA1 area. For electron microscopy, ultra-thin sections (70 nm) from the middle portion of CA1 stratum pyramidale and stratum radiatum were stained with uranyl acetate and lead citrate.
The images were taken with JEM-100CX (Jeol, Japan) transmission electron microscope at magnification of ×10 000.
Perforated synapse was defined as a synapse with discontinuous PSD. The synapses with more than one spine contacting the same presynaptic terminal were classified as multiple spine boutons (MSB).
For the analysis of SV's distribution, x- and y-coordinates of SV profile centers and points tracing the active zone of a synapse were marked with UTHSCSA ImageTool software (version 3, University of Texas, San Antonio, Tex.; ftp://maxrad6.uthscsa.edu) on digitized micrographs, using the point tool.
AZD and NND quantities were pooled together per group. […]
Estimations of synapse density were carried out on single photos by counting all asymmetric spine synapses (determined by the presence of a spine head with prominent PSD and docked synaptic vesicles (SV) in the active zone of a presynaptic terminal) on the micrograph surface limited by the counting frame (36 mkm^2 test area) followed by calculation of the number of synapses per surface unit area.

## O=C(O)CCC(=O)C(=O)O [AKG, alpha-ketoglutaric acid]
[1]
  hippocampal neurogenesis (number of nestin-positive neurons per 1 mm of pyramidal layer length in hippocampal CA1 area): increased hippocampal neurogenesis; also recorded: increase neurogenesis
[2]
  cognition (percentage of spontaneous alterations in T-maze test): improved cognition
[3]; hippocampal CA1, compared to control old animals (FIG. 6A)
  number of SVs (synaptic vesicles) per presynaptic terminal: increased
[3]; hippocampal CA1, old gerbils after long time treatment, old control three times lower than young (FIG. 4)
  number of synaptic terminals (synaptic contacts) per unit area (100 μm^2), increased to: 55%
[3]; hippocampal synapses, old gerbils (FIG. 7)
  distance from a synaptic vesicle to the active zone (AZD): increase of a distance from a vesicle to the active zone
